Laboratory results taken from ChEMBL document CHEMBL5291721, “A preclinical secondary pharmacology resource illuminates target-adverse drug reaction associations of marketed drugs” (Nat Commun, 2023).

Experiments:
[1] = biological target: T1, Alpha-2A adrenergic receptor (Homo sapiens, UniProt P08913); assay type: functional, cell-based
T1 sequence (P08913 whole entry): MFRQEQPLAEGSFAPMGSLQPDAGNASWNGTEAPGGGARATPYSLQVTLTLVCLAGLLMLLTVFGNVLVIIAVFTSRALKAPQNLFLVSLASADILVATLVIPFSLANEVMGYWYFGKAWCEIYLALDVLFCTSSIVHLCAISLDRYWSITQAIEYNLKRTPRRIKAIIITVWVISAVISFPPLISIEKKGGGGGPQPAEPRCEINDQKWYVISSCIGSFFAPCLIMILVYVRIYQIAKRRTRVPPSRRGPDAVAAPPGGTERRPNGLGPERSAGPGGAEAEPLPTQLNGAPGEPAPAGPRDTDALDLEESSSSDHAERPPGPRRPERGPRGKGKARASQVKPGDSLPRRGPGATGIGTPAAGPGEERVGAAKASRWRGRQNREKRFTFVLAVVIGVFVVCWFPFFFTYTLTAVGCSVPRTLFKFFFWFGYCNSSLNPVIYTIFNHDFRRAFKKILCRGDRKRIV

[2] = biological target: T2, Muscarinic acetylcholine receptor M2 (Homo sapiens, UniProt P08172)
T2 sequence (P08172 whole entry): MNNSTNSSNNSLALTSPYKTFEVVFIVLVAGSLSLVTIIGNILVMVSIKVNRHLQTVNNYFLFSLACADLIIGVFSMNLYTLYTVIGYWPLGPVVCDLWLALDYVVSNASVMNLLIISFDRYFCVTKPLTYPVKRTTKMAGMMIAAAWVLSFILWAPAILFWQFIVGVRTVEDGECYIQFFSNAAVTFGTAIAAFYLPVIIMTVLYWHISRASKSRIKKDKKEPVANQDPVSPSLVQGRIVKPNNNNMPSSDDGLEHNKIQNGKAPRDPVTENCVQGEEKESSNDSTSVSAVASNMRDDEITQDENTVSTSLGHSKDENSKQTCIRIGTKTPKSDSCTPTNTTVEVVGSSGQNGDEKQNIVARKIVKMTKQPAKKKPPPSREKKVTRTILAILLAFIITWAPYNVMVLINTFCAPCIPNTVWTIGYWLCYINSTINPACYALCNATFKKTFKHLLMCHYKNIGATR

[3] = biological target: T3, D(1A) dopamine receptor (Homo sapiens, UniProt P21728)
[4] = biological target: T4, Histamine H3 receptor (Homo sapiens, UniProt Q9Y5N1)
[5] = biological target: T5, 5-hydroxytryptamine receptor 1A (Homo sapiens, UniProt P08908)
T5 sequence (P08908 whole entry): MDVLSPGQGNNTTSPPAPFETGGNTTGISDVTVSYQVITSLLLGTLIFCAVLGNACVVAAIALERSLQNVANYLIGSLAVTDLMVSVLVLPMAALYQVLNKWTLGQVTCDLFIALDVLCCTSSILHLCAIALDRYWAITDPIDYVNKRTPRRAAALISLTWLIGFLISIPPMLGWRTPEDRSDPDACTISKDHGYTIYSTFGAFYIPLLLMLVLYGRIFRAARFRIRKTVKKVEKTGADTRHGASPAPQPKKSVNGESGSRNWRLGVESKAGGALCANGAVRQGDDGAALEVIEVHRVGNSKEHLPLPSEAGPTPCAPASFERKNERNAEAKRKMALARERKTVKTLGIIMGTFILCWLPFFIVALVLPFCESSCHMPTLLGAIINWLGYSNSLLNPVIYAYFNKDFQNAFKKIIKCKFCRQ

[6] = biological target: cGMP-inhibited 3',5'-cyclic phosphodiesterase 3A (Homo sapiens, UniProt Q14432); assay type: functional
[7] = biological target: T6, Prostaglandin G/H synthase 1 (Homo sapiens, UniProt P23219); assay type: functional
[8] = biological target: T6, Prostaglandin G/H synthase 1; assay type: functional; remark: listed apart in the source
[9] = biological target: Sodium-dependent noradrenaline transporter (Homo sapiens, UniProt P23975)
[10] = biological target: Sodium-dependent dopamine transporter (Homo sapiens, UniProt Q01959)
[11] = biological target: T7, Alpha-1A adrenergic receptor (Homo sapiens, UniProt P35348); assay type: functional, cell-based
T7 sequence (P35348 whole entry): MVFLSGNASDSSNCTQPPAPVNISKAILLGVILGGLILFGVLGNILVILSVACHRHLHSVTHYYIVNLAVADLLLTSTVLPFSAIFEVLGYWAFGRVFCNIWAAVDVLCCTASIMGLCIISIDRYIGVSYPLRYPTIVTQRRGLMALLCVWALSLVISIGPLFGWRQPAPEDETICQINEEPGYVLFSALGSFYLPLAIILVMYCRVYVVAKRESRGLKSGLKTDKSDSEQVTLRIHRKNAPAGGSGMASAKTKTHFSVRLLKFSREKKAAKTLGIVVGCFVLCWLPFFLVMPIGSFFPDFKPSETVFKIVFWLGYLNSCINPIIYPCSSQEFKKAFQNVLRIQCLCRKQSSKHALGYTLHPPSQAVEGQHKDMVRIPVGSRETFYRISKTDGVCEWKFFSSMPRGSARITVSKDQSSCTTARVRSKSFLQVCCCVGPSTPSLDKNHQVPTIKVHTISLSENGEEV

[12] = biological target: Histamine H1 receptor (Homo sapiens, UniProt P35367)
[13] = biological target: Beta-2 adrenergic receptor (Homo sapiens, UniProt P07550)
[14] = biological target: T3, D(1A) dopamine receptor; assay type: functional, cell-based
[15] = biological target: T5, 5-hydroxytryptamine receptor 1A; assay type: functional, cell-based
[16] = biological target: T4, Histamine H3 receptor; remark: listed apart in the source
[17] = biological target: T7, Alpha-1A adrenergic receptor; assay type: functional, cell-based; remark: listed apart in the source
[18] = biological target: Cannabinoid receptor 1 (Homo sapiens, UniProt P21554); assay type: functional, cell-based
Further: assay procedure not described here.

Sodium-dependent noradrenaline transporter, sequence (P23975 whole entry): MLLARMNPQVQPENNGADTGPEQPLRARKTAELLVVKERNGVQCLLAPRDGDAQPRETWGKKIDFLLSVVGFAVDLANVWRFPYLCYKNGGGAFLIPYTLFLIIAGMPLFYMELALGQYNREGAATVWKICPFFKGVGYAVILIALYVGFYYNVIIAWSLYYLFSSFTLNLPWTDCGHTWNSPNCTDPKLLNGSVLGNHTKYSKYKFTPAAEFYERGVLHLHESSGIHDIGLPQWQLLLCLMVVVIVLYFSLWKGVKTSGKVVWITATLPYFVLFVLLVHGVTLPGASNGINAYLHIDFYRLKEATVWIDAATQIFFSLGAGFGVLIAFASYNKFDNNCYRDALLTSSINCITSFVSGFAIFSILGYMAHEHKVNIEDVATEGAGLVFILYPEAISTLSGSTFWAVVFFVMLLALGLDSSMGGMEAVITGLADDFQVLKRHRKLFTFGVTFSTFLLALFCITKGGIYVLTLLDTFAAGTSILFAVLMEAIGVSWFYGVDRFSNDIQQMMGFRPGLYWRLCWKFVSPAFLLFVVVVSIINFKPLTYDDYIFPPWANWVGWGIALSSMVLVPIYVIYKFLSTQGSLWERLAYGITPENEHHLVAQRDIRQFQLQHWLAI
cGMP-inhibited 3',5'-cyclic phosphodiesterase 3A, sequence (Q14432 whole entry): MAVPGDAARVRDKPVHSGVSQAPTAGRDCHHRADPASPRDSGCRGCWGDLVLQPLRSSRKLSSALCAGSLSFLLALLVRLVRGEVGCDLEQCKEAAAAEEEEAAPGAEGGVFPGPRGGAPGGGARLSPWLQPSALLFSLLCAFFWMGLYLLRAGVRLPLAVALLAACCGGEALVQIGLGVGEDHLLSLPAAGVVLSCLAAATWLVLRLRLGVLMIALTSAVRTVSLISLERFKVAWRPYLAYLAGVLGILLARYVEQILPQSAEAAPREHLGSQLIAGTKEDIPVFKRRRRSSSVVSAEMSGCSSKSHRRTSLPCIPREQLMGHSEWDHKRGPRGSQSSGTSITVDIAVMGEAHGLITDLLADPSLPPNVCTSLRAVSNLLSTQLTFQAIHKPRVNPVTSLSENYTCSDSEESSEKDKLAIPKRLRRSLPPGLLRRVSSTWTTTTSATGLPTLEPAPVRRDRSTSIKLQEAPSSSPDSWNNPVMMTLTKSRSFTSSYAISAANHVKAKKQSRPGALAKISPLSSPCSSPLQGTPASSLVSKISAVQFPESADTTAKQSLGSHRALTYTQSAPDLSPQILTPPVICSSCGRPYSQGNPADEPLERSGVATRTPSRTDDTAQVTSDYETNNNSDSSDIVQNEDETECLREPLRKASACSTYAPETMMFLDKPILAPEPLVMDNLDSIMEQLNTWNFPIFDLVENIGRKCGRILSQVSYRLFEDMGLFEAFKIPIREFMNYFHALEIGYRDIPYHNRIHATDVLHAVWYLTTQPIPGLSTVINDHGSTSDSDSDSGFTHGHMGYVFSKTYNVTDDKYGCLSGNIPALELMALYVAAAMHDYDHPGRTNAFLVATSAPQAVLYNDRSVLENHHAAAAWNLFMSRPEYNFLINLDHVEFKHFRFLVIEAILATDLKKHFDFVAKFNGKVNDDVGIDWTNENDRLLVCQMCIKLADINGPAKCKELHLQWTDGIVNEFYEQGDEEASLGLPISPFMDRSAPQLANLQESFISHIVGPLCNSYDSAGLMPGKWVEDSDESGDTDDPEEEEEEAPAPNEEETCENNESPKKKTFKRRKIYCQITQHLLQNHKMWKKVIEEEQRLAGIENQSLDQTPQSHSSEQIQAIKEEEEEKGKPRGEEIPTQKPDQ
Sodium-dependent dopamine transporter, sequence (Q01959 whole entry): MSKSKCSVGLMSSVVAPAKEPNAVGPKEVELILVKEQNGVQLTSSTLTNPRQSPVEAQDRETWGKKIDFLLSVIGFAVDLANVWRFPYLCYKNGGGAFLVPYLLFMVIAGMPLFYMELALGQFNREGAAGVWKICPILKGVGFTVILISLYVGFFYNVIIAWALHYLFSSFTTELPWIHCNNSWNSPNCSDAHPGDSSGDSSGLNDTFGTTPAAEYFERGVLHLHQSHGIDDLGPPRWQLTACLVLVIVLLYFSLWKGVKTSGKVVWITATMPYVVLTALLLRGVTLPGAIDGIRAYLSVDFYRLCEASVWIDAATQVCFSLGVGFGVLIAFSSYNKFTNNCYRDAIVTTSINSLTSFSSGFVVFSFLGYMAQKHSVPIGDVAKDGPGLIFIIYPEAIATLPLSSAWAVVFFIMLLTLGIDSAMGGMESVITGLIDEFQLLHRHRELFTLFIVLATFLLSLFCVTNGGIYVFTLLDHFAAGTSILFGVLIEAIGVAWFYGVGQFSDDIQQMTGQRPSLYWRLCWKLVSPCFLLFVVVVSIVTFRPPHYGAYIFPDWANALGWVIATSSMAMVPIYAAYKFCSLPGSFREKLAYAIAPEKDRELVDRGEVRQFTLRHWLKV
T6 sequence (P23219 whole entry): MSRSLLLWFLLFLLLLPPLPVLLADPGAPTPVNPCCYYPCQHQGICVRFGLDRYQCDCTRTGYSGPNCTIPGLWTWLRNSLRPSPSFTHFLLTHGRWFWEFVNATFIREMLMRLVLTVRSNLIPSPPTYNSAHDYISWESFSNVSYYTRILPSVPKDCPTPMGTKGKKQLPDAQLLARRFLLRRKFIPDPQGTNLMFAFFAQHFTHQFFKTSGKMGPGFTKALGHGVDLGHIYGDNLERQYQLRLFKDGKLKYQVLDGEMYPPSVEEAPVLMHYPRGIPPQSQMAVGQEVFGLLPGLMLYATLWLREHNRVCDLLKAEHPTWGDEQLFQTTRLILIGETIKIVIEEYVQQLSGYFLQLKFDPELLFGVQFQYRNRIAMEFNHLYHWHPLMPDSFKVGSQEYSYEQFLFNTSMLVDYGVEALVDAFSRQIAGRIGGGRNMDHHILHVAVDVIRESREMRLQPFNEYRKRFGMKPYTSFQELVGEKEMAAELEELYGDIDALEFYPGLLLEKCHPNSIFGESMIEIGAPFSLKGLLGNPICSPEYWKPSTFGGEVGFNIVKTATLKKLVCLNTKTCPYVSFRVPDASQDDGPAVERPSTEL
T3 sequence (P21728 whole entry): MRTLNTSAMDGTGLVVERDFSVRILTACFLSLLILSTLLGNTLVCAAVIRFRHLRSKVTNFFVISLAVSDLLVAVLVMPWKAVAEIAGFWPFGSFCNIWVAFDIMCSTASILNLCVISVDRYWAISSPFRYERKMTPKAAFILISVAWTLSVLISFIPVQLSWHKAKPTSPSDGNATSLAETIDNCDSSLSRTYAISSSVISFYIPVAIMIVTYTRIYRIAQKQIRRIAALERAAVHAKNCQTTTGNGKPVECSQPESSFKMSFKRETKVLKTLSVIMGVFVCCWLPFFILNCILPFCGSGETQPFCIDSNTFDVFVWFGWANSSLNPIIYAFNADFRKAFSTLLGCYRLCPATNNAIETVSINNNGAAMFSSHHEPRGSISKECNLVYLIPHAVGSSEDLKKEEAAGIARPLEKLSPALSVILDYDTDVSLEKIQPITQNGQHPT
T4 sequence (Q9Y5N1 whole entry): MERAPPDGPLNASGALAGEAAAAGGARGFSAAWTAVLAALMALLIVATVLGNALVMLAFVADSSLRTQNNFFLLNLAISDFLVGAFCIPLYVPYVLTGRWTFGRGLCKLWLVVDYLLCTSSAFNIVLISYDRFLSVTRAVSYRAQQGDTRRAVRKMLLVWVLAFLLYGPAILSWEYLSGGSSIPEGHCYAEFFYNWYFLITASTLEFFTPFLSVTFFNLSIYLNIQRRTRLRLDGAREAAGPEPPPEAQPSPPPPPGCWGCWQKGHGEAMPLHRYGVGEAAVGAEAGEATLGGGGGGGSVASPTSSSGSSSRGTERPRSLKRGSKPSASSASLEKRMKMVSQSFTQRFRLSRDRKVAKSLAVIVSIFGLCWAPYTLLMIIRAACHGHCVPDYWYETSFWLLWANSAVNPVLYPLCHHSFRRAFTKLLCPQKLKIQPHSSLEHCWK
Beta-2 adrenergic receptor, sequence (P07550 whole entry): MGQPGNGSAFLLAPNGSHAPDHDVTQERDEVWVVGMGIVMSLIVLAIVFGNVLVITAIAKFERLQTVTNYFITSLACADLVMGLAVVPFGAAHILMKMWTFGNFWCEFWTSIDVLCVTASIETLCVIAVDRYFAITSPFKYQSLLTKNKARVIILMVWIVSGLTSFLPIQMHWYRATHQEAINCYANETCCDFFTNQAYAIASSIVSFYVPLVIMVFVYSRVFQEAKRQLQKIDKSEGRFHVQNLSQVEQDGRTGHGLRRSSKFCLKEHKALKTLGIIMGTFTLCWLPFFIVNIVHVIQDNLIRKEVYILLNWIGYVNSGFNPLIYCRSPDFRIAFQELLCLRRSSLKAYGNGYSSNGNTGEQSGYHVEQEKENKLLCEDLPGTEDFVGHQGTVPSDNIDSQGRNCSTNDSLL
Histamine H1 receptor, sequence (P35367 whole entry): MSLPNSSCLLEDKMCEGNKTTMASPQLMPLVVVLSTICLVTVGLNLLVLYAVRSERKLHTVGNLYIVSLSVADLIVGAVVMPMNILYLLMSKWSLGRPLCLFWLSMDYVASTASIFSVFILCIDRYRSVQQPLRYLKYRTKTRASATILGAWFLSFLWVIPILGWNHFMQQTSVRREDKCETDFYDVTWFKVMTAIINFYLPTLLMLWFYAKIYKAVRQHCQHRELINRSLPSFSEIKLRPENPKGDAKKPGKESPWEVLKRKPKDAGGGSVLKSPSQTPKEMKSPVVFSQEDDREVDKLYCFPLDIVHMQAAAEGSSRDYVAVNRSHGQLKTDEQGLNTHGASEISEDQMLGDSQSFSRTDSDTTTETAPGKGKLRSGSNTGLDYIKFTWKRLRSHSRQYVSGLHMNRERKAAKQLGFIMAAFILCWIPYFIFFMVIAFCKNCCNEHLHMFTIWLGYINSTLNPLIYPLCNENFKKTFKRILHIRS

Row | Structure (SMILES) | AC50 [1] [µM] | AC50 [2] [µM] | AC50 [3] [µM] | AC50 [4] [µM] | AC50 [5] [µM] | AC50 [6] [µM] | AC50 [7] [µM] | AC50 [8] [µM] | AC50 [9] [µM] | AC50 [10] [µM] | AC50 [11] [nM] | AC50 [12] [µM] | AC50 [13] [µM] | AC50 [14] [µM] | AC50 [15] [µM] | AC50 [16] [µM] | AC50 [17] [µM] | AC50 [18] [µM]
1 | C[C@H](Cc1cc2c(c(C(N)=O)c1)N(CCCO)CC2)NCCOc1ccccc1OCC(F)(F)F [SILODOSIN] | 10 | > 30 | 10.8 | > 30 | 0.003 | > 30 | > 30 | 15 | > 30 | 18.6 | 2.9 | – | – | – | – | – | – | –
2 | CC(C)(C)NC[C@H](O)COc1cccc2c1CCCC2=O [LEVOBUNOLOL] | – | > 30 | > 30 | > 30 | 0.886 | > 30 | > 30 | > 30 | > 30 | > 30 | – | – | – | – | – | – | – | –
3 | c1ccc2c(c1)CCc1ccccc1N2C1CN2CCC1CC2 (stereo not given) [QUINUPRAMINE] | – | 0.0329 | 2.41 | > 30 | 23.3 | > 30 | > 30 | > 30 | 4.32 | 2.62 | – | – | – | – | – | – | – | –
4 | CCC(=O)O[C@]1(C(=O)CCl)[C@@H](C)C[C@H]2[C@@H]3C[C@H](F)C4=CC(=O)C=C[C@]4(C)[C@@]3(F)[C@@H](O)C[C@@]21C [HALOBETASOL PROPIONATE] | – | > 30 | > 30 | > 30 | > 30 | > 30 | > 30 | > 30 | > 30 | > 30 | – | – | – | – | – | – | – | –
5 | Cc1cc(NC(=O)C2=C(O)c3ccccc3S(=O)(=O)N2C)no1 [ISOXICAM] | – | > 30 | > 30 | > 30 | > 30 | > 30 | > 30 | > 30 | > 30 | > 30 | – | – | – | – | – | – | – | –
6 | CC1=CCC(C(C)(C)O)CC1O (stereo not given) [SOBREROL] | – | > 30 | > 30 | > 30 | > 30 | > 10 | > 30 | > 30 | > 30 | > 30 | – | – | – | – | – | – | – | –
7 | Cc1cc(N)c2ccccc2[n+]1CCCCCCCCCC[n+]1c(C)cc(N)c2ccccc21 | – | 0.0497 | 1.04 | 0.0813 | 2.53 | 10 | 14.8 | 1.57 | 1.47 | 0.89 | – | – | – | – | – | – | – | –
8 | Cc1ccccc1N1CCN(CCc2nnc3n2CCCC3)CC1 [DAPIPRAZOLE] | – | 7.61 | > 30 | > 30 | 0.628 | > 30 | > 30 | > 30 | > 30 | > 30 | – | – | – | – | – | – | – | –
9 | COc1cc2c(cc1OC)CC(=O)N(CCCN(C)C[C@H]1Cc3cc(OC)c(OC)cc31)CC2 [IVABRADINE] | – | 3.35 | > 30 | > 30 | 5.81 | > 30 | > 30 | > 30 | > 30 | > 30 | – | – | – | – | – | – | – | –
10 | CC[C@@H]([C@H](C)O)n1ncn(-c2ccc(N3CCN(c4ccc(OC[C@@H]5CO[C@@](Cn6cncn6)(c6ccc(F)cc6F)C5)cc4)CC3)cc2)c1=O [POSACONAZOLE] | – | > 30 | > 30 | > 30 | > 30 | > 30 | > 30 | > 30 | > 30 | > 30 | – | > 30 | – | – | – | – | – | –
11 | CCCc1nc(C(C)(C)O)c(C(=O)O)n1Cc1ccc(-c2ccccc2-c2nnn[nH]2)cc1 [OLMESARTAN] | – | > 30 | > 30 | > 30 | > 30 | > 30 | > 30 | > 30 | > 30 | > 30 | – | – | – | – | – | – | – | –
12 | C=CCNc1nc(NCC=C)nc(N2CCN(C(c3ccc(F)cc3)c3ccc(F)cc3)CC2)n1 [ALMITRINE] | > 30 | – | – | – | – | – | – | – | – | – | – | > 30 | > 30 | > 30 | > 30 | > 30 | – | –
13 | Cc1ncc(COP(=O)(O)O)c(C=O)c1O [PYRIDOXAL PHOSPHATE ANHYDROUS] | – | > 30 | > 30 | > 30 | > 30 | > 30 | 8.66 | 6.68 | > 30 | > 30 | – | – | – | – | – | – | – | –
14 | COC(=O)c1ccc(O)cc1 [METHYLPARABEN] | – | > 30 | > 30 | > 30 | > 30 | > 30 | > 30 | > 1 | > 30 | > 30 | – | – | – | – | – | – | – | –
15 | CN(C)CCOC(c1ccccc1)c1ccc(Br)cc1 (stereo not given) [BROMODIPHENHYDRAMINE] | – | 1.42 | 2.95 | > 30 | 22.2 | > 30 | > 30 | > 30 | 4.22 | 0.757 | – | – | – | – | – | – | – | –
16 | COc1cc(N2CCC(N3CCN(C)CC3)CC2)ccc1Nc1ncc(Cl)c(Nc2ccccc2P(C)(C)=O)n1 [BRIGATINIB] | – | > 30 | > 30 | 2.53 | > 30 | > 30 | > 30 | 26.3 | > 30 | > 30 | – | – | – | – | – | – | – | –
17 | CC(C(=O)O)c1ccc(CC2CCCC2=O)cc1 (stereo not given) [LOXOPROFEN] | > 30 | – | – | – | – | – | – | – | – | – | > 30000 | – | > 30 | > 30 | > 30 | > 30 | > 30 | > 30
18 | Cc1c(N(C)CS(=O)(=O)O)c(=O)n(-c2ccccc2)n1C [METAMIZOLE] | – | > 30 | > 30 | > 30 | > 30 | > 30 | > 30 | 3.66 | > 30 | > 30 | – | – | – | – | – | – | – | –
19 | CC(=O)O[C@]1(C(C)=O)CC[C@H]2[C@@H]3C=C(Cl)C4=CC(=O)CC[C@]4(C)[C@H]3CC[C@@]21C [CHLORMADINONE ACETATE] | – | 25.3 | > 30 | > 30 | > 30 | > 30 | > 30 | > 30 | > 30 | > 30 | – | – | – | – | – | – | – | –
